From PubChem BioAssay (NCI) come the findings set out here.

Some test systems named below: HOP-62 NSCLC; HS 578T breast; MALME-3M melanoma; NCI-H23 lung; OVCAR-5 ovarian; RXF 393 renal; SF-268 CNS; SN12C renal; SW-620 colon; UACC-257 melanoma.
Common to all, as to assay: growth of human tumour cells (NCI), 48 h

Where “and” joins values, the source holds several entries; their conditions need not be identical. Identical values can stand only once.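 Growth conditions: 96-well plates. Treatment: test compound, 48 hours, 5 concentrations. Analysis: linear interpolation between bracketing concentrations; unreached endpoints set to highest concentration. GI50 = concentration required for 50% inhibition of growth. Definition used: TGI = concentration required for complete inhibition of growth.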 Where a SMILES comes first, the peptide text is derived from it. [ ]: non-standard residue; d: D form. 2Nal = N[CH](Cc1ccc2ccccc2c1)C(=O)O

For `CCC(=S)N(C)O`, the TGI in the test on HOP-62 NSCLC is greater than 95.3 µM; with HS 578T breast, greater than 100 µM; in the test with MALME-3M melanoma, greater than 100 µM; in the test on NCI-H23 lung, greater than 100 µM; in the test with OVCAR-5 ovarian, greater than 100 µM; in the test on RXF 393 renal, greater than 100 µM. The TGI in the test with SF-268 CNS, with SN12C renal, in the test with SW-620 colon and in the test on UACC-257 melanoma was greater than 100 µM each time.
As for `COc1ccc2[nH]cc(/C=C3\C(=O)Nc4ccccc43)c2c1`, the GI50 in the test on HOP-62 NSCLC was 5.18 µM; in the test with HS 578T breast, 3.79 µM; in the test with MALME-3M melanoma it was 11.2 µM; in the test with NCI-H23 lung it was 10.5 µM; in the test with OVCAR-5 ovarian, 11.6 µM; with RXF 393 renal, 2.95 µM. In addition, the GI50 was 5.92 µM in the test with SF-268 CNS, 7.37 µM in the test on SN12C renal, 2.92 µM in the test with SW-620 colon and 14.3 µM in the test with UACC-257 melanoma. The TGI amounted to 19.8 µM in the test with HOP-62 NSCLC; 19.9 µM in the test with HS 578T breast; 49.1 µM in the test with MALME-3M melanoma; 49.6 µM in the test with NCI-H23 lung; 42 µM with OVCAR-5 ovarian; 13.3 µM with RXF 393 renal. The TGI with SF-268 CNS amounted to 29.9 µM; with SN12C renal it was 39.9 µM; with SW-620 colon, 12.8 µM; with UACC-257 melanoma, 73.1 µM.
As for `O=C(O)[C@@H]1C[C@@H](O)CN1`, the TGI in the test with HOP-62 NSCLC, with HS 578T breast, in the test on MALME-3M melanoma, in the test with NCI-H23 lung, in the test on OVCAR-5 ovarian and with RXF 393 renal was greater than 100 µM each time. The TGI in the test with SF-268 CNS, in the test with SN12C renal, in the test with SW-620 colon and in the test with UACC-257 melanoma was greater than 100 µM throughout.
As to `CCOC(=O)C(=Cc1ccc(Br)cc1)C(=O)OCC`, the GI50 in the test with HOP-62 NSCLC is 2.78 µM; with HS 578T breast it was 4.03 µM; in the test on MALME-3M melanoma, 2.32 µM; with NCI-H23 lung, 2.32 µM; in the test with OVCAR-5 ovarian, 2.66 µM; with RXF 393 renal it was 1.15 µM. Besides, the GI50 in the test with SF-268 CNS is 1.91 µM; in the test with SN12C renal it was 2.03 µM; with SW-620 colon, 1.61 µM; with UACC-257 melanoma it was 1.88 µM. Further, the TGI with HOP-62 NSCLC is 5.47 µM; in the test on HS 578T breast, greater than 19.6 µM; in the test on MALME-3M melanoma, 5.59 µM; in the test on NCI-H23 lung, 5.7 µM; with OVCAR-5 ovarian, 6.52 µM; with RXF 393 renal, 2.55 µM. In addition, the TGI came out at 3.95 µM in the test on SF-268 CNS, 4.21 µM with SN12C renal, 3.58 µM in the test on SW-620 colon and 4.15 µM in the test on UACC-257 melanoma.
Take `O=C(N/N=C/c1cc2ccccc2c2ccccc12)c1cc(O)c(O)c(O)c1`: the GI50 in the test with HOP-62 NSCLC was 3.37 µM; in the test on HS 578T breast it was 2.67 µM; with MALME-3M melanoma it was 2.27 µM; with NCI-H23 lung, 3.4 µM; in the test with OVCAR-5 ovarian it was 8.85 µM; in the test on RXF 393 renal, 2.77 µM. The GI50 in the test with SF-268 CNS is 3.74 µM; in the test with SN12C renal, 4.99 µM; in the test with SW-620 colon it was 2.96 µM; with UACC-257 melanoma, 10.2 µM. The TGI turned out to be 12.4 µM in the test on HOP-62 NSCLC; 8.86 µM in the test with HS 578T breast; 7.19 µM with MALME-3M melanoma; 14.3 µM with NCI-H23 lung; 25.7 µM with OVCAR-5 ovarian; 10.1 µM in the test with RXF 393 renal. For the same molecule, the TGI in the test with SF-268 CNS was found to be 14.7 µM; in the test on SN12C renal, 30 µM; in the test with SW-620 colon it was 12.4 µM; in the test on UACC-257 melanoma it was 24.6 µM.
In the case of `O=C(Oc1ccc([N+](=O)[O-])cc1)N1CCC(C(O)(c2ccc3c(c2)OCO3)c2ccc3c(c2)OCO3)CC1`, the GI50 was greater than 100 µM in the test on HOP-62 NSCLC; greater than 80.4 µM with HS 578T breast; greater than 100 µM in the test with MALME-3M melanoma; greater than 100 µM in the test with NCI-H23 lung; greater than 100 µM in the test with OVCAR-5 ovarian; greater than 100 µM in the test on RXF 393 renal. For the same molecule, the GI50 with SF-268 CNS, in the test with SN12C renal, in the test with SW-620 colon and in the test with UACC-257 melanoma was greater than 100 µM throughout. Besides, the TGI in the test with HOP-62 NSCLC, in the test with HS 578T breast, with MALME-3M melanoma, in the test on NCI-H23 lung, in the test on OVCAR-5 ovarian and with RXF 393 renal was greater than 100 µM in each case. The TGI in the test on SF-268 CNS, with SN12C renal, in the test on SW-620 colon and in the test with UACC-257 melanoma was greater than 100 µM in each case.
As to `CC(NC(=O)C(N)Cc1ccccc1)C(=O)NC(Cc1ccc(O)cc1)C(=O)NC(Cc1c[nH]c2ccccc12)C(=O)NC(CCCCN)C(=O)NC(C(=O)NC(C)C(=O)NC(Cc1ccc2ccccc2c1)C(N)=O)C(C)C` (centres undefined) (H-FAYWKVA[2Nal]-NH2; configuration not given here), the GI50 in the test on HOP-62 NSCLC was 23.1 µM; in the test on NCI-H23 lung, 25.7 µM; with RXF 393 renal, 17.7 µM; in the test with SN12C renal, greater than 100 µM; in the test with UACC-257 melanoma, greater than 100 µM. Moreover, the TGI was > 12.5 µM and 53.5 µM in the test with HOP-62 NSCLC; greater than 12.5 µM with HS 578T breast; greater than 12.5 µM with MALME-3M melanoma; > 12.5 µM and 75.4 µM with NCI-H23 lung; greater than 12.5 µM in the test on OVCAR-5 ovarian; > 12.5 µM and 36.5 µM in the test with RXF 393 renal. Also, the TGI with SF-268 CNS is greater than 12.5 µM; in the test with SN12C renal, greater than 100 µM; with SW-620 colon, greater than 12.5 µM; with UACC-257 melanoma it was greater than 100 µM.
With `NC(C(=O)O)C(N)C(=O)O` (centres undefined), the TGI in the test on HOP-62 NSCLC, in the test on HS 578T breast, in the test on MALME-3M melanoma, with NCI-H23 lung, with OVCAR-5 ovarian and with RXF 393 renal was greater than 100 µM in each case. The TGI with SF-268 CNS, with SN12C renal, in the test on SW-620 colon and in the test on UACC-257 melanoma was greater than 100 µM each time.
For `N#Cc1cccc(Nc2nccc(-c3cnn4ncccc34)n2)c1`, the GI50 is 0.00749 µM in the test on HOP-62 NSCLC; 0.00482 µM in the test on HS 578T breast; 0.0076 µM in the test with MALME-3M melanoma; 0.00686 µM in the test on NCI-H23 lung; 0.00823 µM with OVCAR-5 ovarian; 0.00269 µM in the test with RXF 393 renal. Further, the GI50 was 0.00498 µM in the test with SF-268 CNS, 0.00674 µM in the test on SN12C renal, 0.00602 µM in the test on SW-620 colon and 0.00594 µM with UACC-257 melanoma. Moreover, the TGI with HS 578T breast is 0.021 µM; in the test with MALME-3M melanoma, 0.0209 µM; with NCI-H23 lung, 0.0239 µM; in the test on OVCAR-5 ovarian, greater than 25 µM; in the test with RXF 393 renal, 0.00791 µM; in the test with SF-268 CNS, 0.3 µM. Further, the values for the TGI with SN12C renal, in the test on SW-620 colon and in the test on UACC-257 melanoma were greater than 25 µM, greater than 25 µM and 0.0154 µM, respectively.
